Laboratory results: PubChem BioAssay AID330 (DTP/NCI, 2004)
Several values for one entry are separate records, joined by “and”; a condition that tells them apart may be missing. Identical values can stand only once. Inconclusive results and toxic doses are left out. The calls were made as follows: active = survival T/C of 150% or more; inactive = T/C below 125% in these data.

Test system: P388 leukemia ip, CD2F1 mice, survival T/C
Experiment: NCI In Vivo Anticancer Drug Screen. Data for tumor model P388 Leukemia (intraperitoneal) in CD2F1 (CDF1) mice
Conditions: endpoint: median survival time, higher = longer survival
How it was run: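 Mice carrying the transplanted tumor received test compound or vehicle. Survival was recorded in each group, and the value is the treated-group measurement divided by that of the vehicle-treated control group.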

[1] = dose: 50.0 mg/kg/injection, schedule: Q01DX005 (ip), vehicle: Klucel (hydroxypropylcellulose) (HPC)
[2] = dose: 100.0 mg/kg/injection, schedule: Q01DX005 (ip), vehicle: Klucel (hydroxypropylcellulose) (HPC)
[3] = dose: 200.0 mg/kg/injection, schedule: Q01DX005 (ip), vehicle: Klucel (hydroxypropylcellulose) (HPC)
[4] = dose: 50.0 mg/kg/injection, schedule: Q01DX009 (ip), vehicle: saline with Tween-80
[5] = dose: 50.0 mg/kg/injection, schedule: Q01DX009 (ip), vehicle: saline

Measured: T/C

O=C(NC(CO)C(=O)OCc1ccccc1)OCCc1ccccn1 (stereo unspecified)
inactive: dose: 60.0 mg/kg/injection, schedule: Q01DX005 (ip), vehicle: Klucel (hydroxypropylcellulose) (HPC) 100 % of control | dose: 120.0 mg/kg/injection, schedule: Q01DX005 (ip), vehicle: Klucel (hydroxypropylcellulose) (HPC) 96 % of control | dose: 240.0 mg/kg/injection, schedule: Q01DX005 (ip), vehicle: Klucel (hydroxypropylcellulose) (HPC) 96 % of control

COc1cccc2c1C(=O)c1c(O)c3c(c(O)c1C2=O)C[C@@](O)(/C(CO)=N/NS(=O)(=O)c1ccc(C)cc1)C[C@@H]3OC1CC(N)C(O)C(C)O1 (stereo partly specified)
inactive: dose: 0.2 mg/kg/injection, schedule: Q01DX009 (ip), vehicle: water 105 % of control | dose: 0.39 mg/kg/injection, schedule: Q01DX009 (ip), vehicle: water 112 % of control | dose: 0.78 mg/kg/injection, schedule: Q01DX009 (ip), vehicle: water 94 % of control | dose: 1.56 mg/kg/injection, schedule: Q01DX009 (ip), vehicle: water 116 % of control and 118 % of control

O=C1CC(=O)N(CN2C(=O)CC(=O)NC2=S)C(=S)N1
inactive: [1] 100 % of control | [2] 103 % of control | [3] 105 % of control

CS(=O)(=O)c1nc(N)c2nnn(C3OC(CO)C(O)C3O)c2n1 (stereo unspecified)
inactive: dose: 12.5 mg/kg/injection, schedule: Q01DX001 (ip), vehicle: saline 109 % of control | dose: 25.0 mg/kg/injection, schedule: Q01DX001 (ip), vehicle: saline 100 % of control | dose: 50.0 mg/kg/injection, schedule: Q01DX001 (ip), vehicle: saline 118 % of control | dose: 100.0 mg/kg/injection, schedule: Q01DX001 (ip), vehicle: saline 109 % of control

C=C(C)C1=CC(=O)C2CCCC(C)C2(C)C1OC(C)=O (stereo unspecified)
inactive: dose: 75.0 mg/kg/injection, schedule: Q01DX001 (ip), vehicle: Klucel (hydroxypropylcellulose) (HPC) 100 % of control | dose: 150.0 mg/kg/injection, schedule: Q01DX001 (ip), vehicle: Klucel (hydroxypropylcellulose) (HPC) 106 % of control | dose: 300.0 mg/kg/injection, schedule: Q01DX001 (ip), vehicle: Klucel (hydroxypropylcellulose) (HPC) 107 % of control

[Co].[NH-]CCC[NH-].[NH-]CCC[NH-].[NH-]CCC[NH-]
inactive: dose: 25.0 mg/kg/injection, schedule: Q04DX002 (ip), vehicle: saline 99 % of control | dose: 50.0 mg/kg/injection, schedule: Q04DX002 (ip), vehicle: saline 98 % of control | dose: 100.0 mg/kg/injection, schedule: Q04DX002 (ip), vehicle: saline 100 % of control

Cc1cc[n+]2cc(-c3ccc(/C=N/N=C(N)N)cc3)n(C)c2c1
inactive: dose: 1.56 mg/kg/injection, schedule: Q01DX005 (ip), vehicle: Klucel (hydroxypropylcellulose) (HPC) 100 % of control | dose: 3.12 mg/kg/injection, schedule: Q01DX005 (ip), vehicle: Klucel (hydroxypropylcellulose) (HPC) 103 % of control | dose: 6.25 mg/kg/injection, schedule: Q01DX005 (ip), vehicle: Klucel (hydroxypropylcellulose) (HPC) 102 % of control and 107 % of control

OC(CCCN1CCN2CCc3[nH]c4ccccc4c3C2C1)c1ccc(F)cc1 (stereo unspecified)
inactive: dose: 100.0 mg/kg/injection, schedule: Q04DX002 (ip), vehicle: Klucel (hydroxypropylcellulose) (HPC) 100 % of control | dose: 200.0 mg/kg/injection, schedule: Q04DX002 (ip), vehicle: Klucel (hydroxypropylcellulose) (HPC) 95 % of control | dose: 400.0 mg/kg/injection, schedule: Q04DX002 (ip), vehicle: Klucel (hydroxypropylcellulose) (HPC) 100 % of control

CCOC(=O)Cn1c(=O)cc(-c2ccccc2)oc1=O
inactive: [4] 106 % of control | dose: 100.0 mg/kg/injection, schedule: Q01DX009 (ip), vehicle: saline with Tween-80 107 % of control | dose: 200.0 mg/kg/injection, schedule: Q01DX009 (ip), vehicle: saline with Tween-80 90 % of control

[CH3][Sn]1([CH3])[O]P(=O)(c2ccccc2)[O]1
inactive: dose: 6.25 mg/kg/injection, schedule: Q01DX009 (ip), vehicle: saline with Tween-80 99 % of control | dose: 6.25 mg/kg/injection, schedule: Q01DX009 (ip), vehicle: saline 110 % of control | dose: 12.5 mg/kg/injection, schedule: Q01DX009 (ip), vehicle: saline with Tween-80 96 % of control | dose: 12.5 mg/kg/injection, schedule: Q01DX009 (ip), vehicle: saline 112 % of control | dose: 25.0 mg/kg/injection, schedule: Q01DX009 (ip), vehicle: saline with Tween-80 107 % of control | dose: 25.0 mg/kg/injection, schedule: Q01DX009 (ip), vehicle: saline 119 % of control | [4] 105 % of control | [5] 112 % of control and 120 % of control

CCC1(C)CC(=O)NC(=O)C1
inactive: dose: 2.5 mg/kg/injection, schedule: Q01DX009 (ip), vehicle: saline with Tween-80 95 % of control | dose: 5.0 mg/kg/injection, schedule: Q01DX009 (ip), vehicle: saline with Tween-80 95 % of control | dose: 10.0 mg/kg/injection, schedule: Q01DX009 (ip), vehicle: saline with Tween-80 86 % of control

c1ccc(C2=NC(c3ccccc3)=NS(S3=NC(c4ccccc4)=NC(c4ccccc4)=N3)=N2)cc1 (stereo unspecified)
inactive: dose: 50.0 mg/kg/injection, schedule: Q01DX005 (ip), vehicle: saline with Tween-80 106 % of control | dose: 100.0 mg/kg/injection, schedule: Q01DX005 (ip), vehicle: saline with Tween-80 90 % of control | dose: 200.0 mg/kg/injection, schedule: Q01DX005 (ip), vehicle: saline with Tween-80 88 % of control

CCC1(C(=O)OC)CCc2c(cc(OC)c3ccccc23)C1=O (stereo unspecified)
inactive: [1] 87 % of control | [2] 87 % of control | [3] 89 % of control

COCCC(=NC(C)(C)C)Nc1ccccc1Cl
inactive: [5] 114 % of control | dose: 100.0 mg/kg/injection, schedule: Q01DX009 (ip), vehicle: saline 113 % of control | dose: 200.0 mg/kg/injection, schedule: Q01DX009 (ip), vehicle: saline 102 % of control

CCCCOc1cc(C(=O)O)ccc1[N+](=O)[O-]
inactive: dose: 50.0 mg/kg/injection, schedule: Q04DX003 (ip), vehicle: saline with Tween-80 100 % of control | dose: 200.0 mg/kg/injection, schedule: Q04DX003 (ip), vehicle: saline with Tween-80 104 % of control

CC12CCC3C(CCC4=CC(OC5OC(CO)C(O)C(O)C5O)CCC43C=O)C1(O)CCC2c1ccc(=O)oc1 (stereo unspecified)
inactive: dose: 0.12 mg/kg/injection, schedule: Q01DX009 (ip), vehicle: saline + alcohol 103 % of control | dose: 0.25 mg/kg/injection, schedule: Q01DX009 (ip), vehicle: saline + alcohol 106 % of control | dose: 0.5 mg/kg/injection, schedule: Q01DX009 (ip), vehicle: saline + alcohol 106 % of control | dose: 1.0 mg/kg/injection, schedule: Q01DX009 (ip), vehicle: saline + alcohol 103 % of control

O=C1CSC(c2cccs2)N1c1nccs1 (stereo unspecified)
inactive: [1] 102 % of control | [2] 106 % of control | [3] 100 % of control

Cc1ccccc1[B-]12OCC[N+]1(CNC(=O)c1ccccc1O)CCO2 (stereo unspecified)
inactive: [1] 106 % of control | [2] 105 % of control | [3] 105 % of control

CCCCCCCCCCCCCCCC[N+]1(CC)CCOCC1 (tested in a mixture with another compound)
inactive: dose: 3.13 mg/kg/injection, schedule: Q01DX009 (ip), vehicle: Klucel (hydroxypropylcellulose) (HPC) 96 % of control | dose: 6.25 mg/kg/injection, schedule: Q01DX009 (ip), vehicle: Klucel (hydroxypropylcellulose) (HPC) 113 % of control | dose: 12.5 mg/kg/injection, schedule: Q01DX009 (ip), vehicle: Klucel (hydroxypropylcellulose) (HPC) 115 % of control

Cc1ncn(-c2ccccc2)c(=O)c1N=Cc1ccccc1
inactive: dose: 60.0 mg/kg/injection, schedule: Q01DX005 (ip), vehicle: saline with Tween-80 86 % of control | dose: 120.0 mg/kg/injection, schedule: Q01DX005 (ip), vehicle: saline with Tween-80 87 % of control
